# Activity calls are given as the source filed them. The rule behind the calls is not given here.
# Tests used:
# [1] = system: Fusarium oxysporum; experiment: Antifungal activity against Fusarium oxysporum assessed as reduction in fungal cell growth incubated for 48 hrs by serial dilution method; assay type: functional
# [2] = system: Verticillium dahliae; experiment: Antifungal activity against Verticillium dahliae assessed as reduction in fungal cell growth incubated for 48 hrs by serial dilution method; assay type: functional
# [3] = system: Fusarium oxysporum f. sp. vasinfectum; experiment: Antifungal activity against Fusarium oxysporum sp. vasinfectum assessed as reduction in fungal cell growth incubated for 48 hrs by serial dilution method; assay type: functional
# [4] = system: Ralstonia solanacearum; experiment: Antibacterial activity against Ralstonia solanacearum assessed as reduction in bacterial cell growth incubated for 24 hrs by filter paper assay; assay type: functional
# [5] = system: Colletotrichum orbiculare; experiment: Antifungal activity against Colletotrichum orbiculare assessed as reduction in fungal cell growth incubated for 48 hrs by serial dilution method; assay type: functional
# [6] = system: Pseudomonas aeruginosa; experiment: Antibacterial activity against Pseudomonas aeruginosa assessed as reduction in bacterial cell growth incubated for 24 hrs by filter paper assay; assay type: functional
# [7] = system: Escherichia coli; experiment: Antibacterial activity against Escherichia coli assessed as reduction in bacterial cell growth incubated for 24 hrs by filter paper assay; assay type: functional
# [8] = system: Candida tropicalis; experiment: Antifungal activity against Candida tropicalis assessed as reduction in fungal cell growth incubated for 48 hrs by serial dilution method; assay type: functional
# [9] = system: Aspergillus flavus; experiment: Antifungal activity against Aspergillus flavus assessed as reduction in fungal cell growth incubated for 48 hrs by serial dilution method; assay type: functional
# [10] = biological target: Acetylcholinesterase (Electrophorus electricus, UniProt O42275); experiment: Inhibition of electric eel AChE by Ellman's colorimetry
# Chain of Acetylcholinesterase (O42275 whole entry): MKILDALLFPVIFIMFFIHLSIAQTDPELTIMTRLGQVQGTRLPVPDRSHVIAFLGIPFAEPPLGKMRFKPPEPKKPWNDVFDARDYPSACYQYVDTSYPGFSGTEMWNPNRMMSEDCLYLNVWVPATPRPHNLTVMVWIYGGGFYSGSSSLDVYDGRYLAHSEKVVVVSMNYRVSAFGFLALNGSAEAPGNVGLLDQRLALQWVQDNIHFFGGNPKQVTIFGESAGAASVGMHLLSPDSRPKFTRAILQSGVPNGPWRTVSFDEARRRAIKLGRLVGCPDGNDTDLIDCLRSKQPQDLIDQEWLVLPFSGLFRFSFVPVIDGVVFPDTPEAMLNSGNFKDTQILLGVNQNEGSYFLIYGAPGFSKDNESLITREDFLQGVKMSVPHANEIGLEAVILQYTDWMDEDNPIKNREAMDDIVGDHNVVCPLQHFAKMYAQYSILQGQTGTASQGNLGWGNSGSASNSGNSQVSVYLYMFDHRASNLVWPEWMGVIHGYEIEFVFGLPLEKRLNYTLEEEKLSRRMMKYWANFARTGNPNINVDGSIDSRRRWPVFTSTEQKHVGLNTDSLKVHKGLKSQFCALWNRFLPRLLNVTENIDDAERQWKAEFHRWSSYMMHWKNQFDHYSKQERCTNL
# [11] = system: Cryptococcus neoformans; experiment: Antifungal activity against Cryptococcus neoformans assessed as reduction in fungal cell growth incubated for 48 hrs by serial dilution method; assay type: functional
# [12] = system: Staphylococcus aureus; experiment: Antibacterial activity against Staphylococcus aureus assessed as reduction in bacterial cell growth incubated for 24 hrs by filter paper assay; assay type: functional
# [13] = system: Cytospora; experiment: Antifungal activity against Cytospora juglandis assessed as reduction in fungal cell growth incubated for 48 hrs by serial dilution method; assay type: functional
# [14] = system: Curvularia lunata; experiment: Antifungal activity against Curvularia lunata assessed as reduction in fungal cell growth incubated for 48 hrs by serial dilution method; assay type: functional
# [15] = system: Candida; experiment: Antifungal activity against […] assessed as reduction in fungal cell growth incubated for 48 hrs by serial dilution method; assay type: functional
# [16] = system: Bacillus cereus; experiment: Antibacterial activity against Bacillus cereus assessed as reduction in bacterial cell growth incubated for 24 hrs by filter paper assay; assay type: functional
# [17] = biological target: Acetylcholinesterase (Electrophorus electricus) (UniProt O42275); experiment: Inhibition of electric eel AChE by at 1 mg/ml Ellman's colorimetry relative to control
# Chain of Acetylcholinesterase (Electrophorus electricus) (O42275 24-633 limits assumed): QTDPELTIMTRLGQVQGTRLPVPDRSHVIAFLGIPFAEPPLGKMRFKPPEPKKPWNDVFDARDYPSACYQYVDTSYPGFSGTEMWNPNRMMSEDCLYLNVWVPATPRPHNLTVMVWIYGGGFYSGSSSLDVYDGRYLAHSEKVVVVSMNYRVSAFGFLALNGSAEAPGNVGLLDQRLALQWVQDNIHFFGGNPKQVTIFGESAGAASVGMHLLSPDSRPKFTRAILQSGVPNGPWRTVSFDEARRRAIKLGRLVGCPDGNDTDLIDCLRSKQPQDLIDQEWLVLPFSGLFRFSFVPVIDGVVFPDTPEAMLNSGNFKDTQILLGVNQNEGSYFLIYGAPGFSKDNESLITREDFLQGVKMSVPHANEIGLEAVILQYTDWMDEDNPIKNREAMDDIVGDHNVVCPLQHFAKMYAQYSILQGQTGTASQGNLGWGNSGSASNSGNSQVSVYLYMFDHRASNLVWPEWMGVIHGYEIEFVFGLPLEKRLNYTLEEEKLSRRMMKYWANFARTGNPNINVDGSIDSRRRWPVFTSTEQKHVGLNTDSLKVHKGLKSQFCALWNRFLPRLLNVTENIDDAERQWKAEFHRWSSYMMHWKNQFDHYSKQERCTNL
# [18] = system: Aspergillus niger; experiment: Antifungal activity against Aspergillus niger assessed as reduction in fungal cell growth incubated for 48 hrs by serial dilution method; assay type: functional
# [19] = system: Penicillium citrinum; experiment: Antifungal activity against Penicillium citrinum assessed as reduction in fungal cell growth incubated for 48 hrs by serial dilution method; assay type: functional
Compound,MIC [1],MIC [2],MIC [3],MIC [4],MIC [5],MIC [6],MIC [7],MIC [8],MIC [9],IC50 [10] [µM],MIC [11],MIC [12],MIC [13],MIC [14],MIC [15],MIC [16],inhibition [17] [%],MIC [18],MIC [19]
CC(C)C(=O)N1CCCC2(O)c3ccccc3N(C)C12 (stereo unspecified),inactive,250 µg/mL,inactive,inactive,inactive,250 µg/mL,inactive,inactive,inactive,0.51,inactive,inactive,inactive,inactive,inactive,inactive,> 80,inactive,inactive
Cc1cccc(CN2c3ccccc3C3(Cc4cccc(C)c4)CCN(C(=O)CCc4ccccc4)C23)c1 (stereo unspecified),250 µg/mL,inactive,62.5 µg/mL,inactive,inactive,inactive,inactive,inactive,250 µg/mL,0.00399,inactive,inactive,250 µg/mL,inactive,inactive,inactive,–,inactive,inactive
COc1ccc(C(=O)N2CCC3(Cc4ccccc4C)c4ccccc4N(Cc4ccccc4C)C23)cc1 (stereo unspecified),250 µg/mL,250 µg/mL,inactive,inactive,inactive,inactive,inactive,inactive,250 µg/mL,126,inactive,inactive,250 µg/mL,inactive,inactive,inactive,–,250 µg/mL,inactive
Cc1ccc(S(=O)(=O)N2CCC3(Cc4cccc(C)c4)c4ccccc4N(Cc4cccc(C)c4)C23)cc1 (stereo unspecified),250 µg/mL,62.5 µg/mL,125 µg/mL,inactive,250 µg/mL,inactive,inactive,inactive,250 µg/mL,12.8,inactive,inactive,250 µg/mL,inactive,250 µg/mL,125 µg/mL,–,250 µg/mL,inactive
CCC(=O)N1CCC2(Cc3cccc(C)c3)c3ccccc3N(Cc3cccc(C)c3)C12 (stereo unspecified),125 µg/mL,250 µg/mL,inactive,inactive,250 µg/mL,inactive,250 µg/mL,250 µg/mL,250 µg/mL,0.919,inactive,62.5 µg/mL,62.5 µg/mL,250 µg/mL,250 µg/mL,31.2 µg/mL,–,125 µg/mL,inactive
CCCCCCC(=O)N1CCC2(Cc3cccc(C)c3)c3ccccc3N(Cc3cccc(C)c3)C12 (stereo unspecified),125 µg/mL,125 µg/mL,250 µg/mL,125 µg/mL,250 µg/mL,125 µg/mL,250 µg/mL,250 µg/mL,250 µg/mL,18.2,inactive,250 µg/mL,62.5 µg/mL,62.5 µg/mL,250 µg/mL,125 µg/mL,–,250 µg/mL,250 µg/mL
Cc1cccc(CN2c3ccccc3C3(Cc4cccc(C)c4)CCN(C(=O)c4ccccc4)C23)c1 (stereo unspecified),250 µg/mL,31.2 µg/mL,62.5 µg/mL,inactive,250 µg/mL,inactive,inactive,inactive,250 µg/mL,45.1,inactive,inactive,62.5 µg/mL,inactive,inactive,inactive,–,250 µg/mL,250 µg/mL
Cc1cccc(C(=O)N2CCCC3(O)c4ccccc4N(C)C23)c1 (stereo unspecified),inactive,250 µg/mL,inactive,62.5 µg/mL,inactive,250 µg/mL,inactive,250 µg/mL,inactive,5.52,inactive,250 µg/mL,inactive,inactive,inactive,inactive,–,inactive,inactive
CCCCCC(=O)N1CCC2(Cc3ccccc3C)c3ccccc3N(Cc3ccccc3C)C12 (stereo unspecified),125 µg/mL,62.5 µg/mL,inactive,250 µg/mL,250 µg/mL,125 µg/mL,inactive,inactive,250 µg/mL,217,inactive,inactive,125 µg/mL,125 µg/mL,125 µg/mL,inactive,–,250 µg/mL,250 µg/mL
Cc1cccc(CN2c3ccccc3C3(Cc4cccc(C)c4)CCN(C(=O)Cc4ccccc4)C23)c1 (stereo unspecified),250 µg/mL,250 µg/mL,125 µg/mL,inactive,inactive,inactive,inactive,inactive,250 µg/mL,453,inactive,inactive,250 µg/mL,inactive,inactive,inactive,–,250 µg/mL,250 µg/mL
CN1c2ccccc2C2(O)CCCN(C(=O)c3cccc(F)c3)C12 (stereo unspecified),inactive,250 µg/mL,inactive,250 µg/mL,inactive,250 µg/mL,250 µg/mL,inactive,inactive,0.337,inactive,inactive,inactive,inactive,inactive,inactive,–,inactive,inactive
CN1c2ccccc2C2(O)CCCN(C(=O)c3ccccc3F)C12 (stereo unspecified),inactive,125 µg/mL,inactive,125 µg/mL,inactive,250 µg/mL,250 µg/mL,inactive,inactive,0.98,inactive,inactive,inactive,inactive,inactive,inactive,–,inactive,inactive
CCCCC(=O)N1CCC2(Cc3cccc(C)c3)c3ccccc3N(Cc3cccc(C)c3)C12 (stereo unspecified),125 µg/mL,31.2 µg/mL,inactive,250 µg/mL,inactive,125 µg/mL,250 µg/mL,250 µg/mL,250 µg/mL,0.133,inactive,250 µg/mL,250 µg/mL,inactive,250 µg/mL,250 µg/mL,–,250 µg/mL,250 µg/mL
Cc1cccc(CN2c3ccccc3C3(Cc4cccc(C)c4)CCN(C(=O)c4ccccc4C)C23)c1 (stereo unspecified),125 µg/mL,7.81 µg/mL,125 µg/mL,125 µg/mL,250 µg/mL,inactive,inactive,250 µg/mL,250 µg/mL,112,inactive,inactive,125 µg/mL,62.5 µg/mL,250 µg/mL,125 µg/mL,–,250 µg/mL,inactive
CCCCCC(=O)N1CCC2(Cc3cccc(C)c3)c3ccccc3N(Cc3cccc(C)c3)C12 (stereo unspecified),125 µg/mL,15.6 µg/mL,inactive,250 µg/mL,250 µg/mL,125 µg/mL,inactive,250 µg/mL,250 µg/mL,142,inactive,inactive,125 µg/mL,inactive,250 µg/mL,250 µg/mL,–,250 µg/mL,250 µg/mL
